The structures appear in SMILES notation. Where two headings read alike, the source gives them in different places.

What all share (type): cell-based
One assay concerns the target T1, STAT3 (Homo sapiens, UniProt P40763).
T1 construct: This cell line is a clone created by using CRISPR-Cas9 to fuse HiBiT to the 3′ end of STAT3 in HeLa cells; host or cells: STAT3-HiBiT KI HeLa cell line (CRISPR-Cas9 knock-in clone)
Description: HiBiT assay, STAT3 degradation in STAT3-HiBiT KI HeLa cells. The following applies: read-out: STAT3 Degradation (HeLa 24 h HiBit) DC50. Put shortly: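 HeLa cells with CRISPR knock-in of HiBiT at the STAT3 C-terminus, 20000 cells/well, treated with serial compound dilutions for 24 h at 37 °C, 5% CO2. Remaining STAT3 read by Nano-Glo HiBiT lytic luminescence versus untreated cells; IC50 from four-parameter nonlinear fit of triplicate means.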

A further assay concerns SU-DHL-1 cells. The experiment in a line: CellTiter-Glo 2.0 cell viability assay, SU-DHL-1. The following applies: 4 days. Put shortly: (§1)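 1000 cells per well exposed to serially diluted compounds for 4 days at 37 °C, 5% CO2. Viability measured by CellTiter-Glo 2.0 luminescence versus untreated cells; IC50 from four-parameter nonlinear fit of triplicate means.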
Another assay deals with SUP-M2 cells. Description: CellTiter-Glo 2.0 cell viability assay, SUP-M2. The following applies: 4 days. The procedure, abridged: as §1
A general note: ATP-based viability assays read luminescence as a measure of living cells.

T1 sequence (P40763 whole entry): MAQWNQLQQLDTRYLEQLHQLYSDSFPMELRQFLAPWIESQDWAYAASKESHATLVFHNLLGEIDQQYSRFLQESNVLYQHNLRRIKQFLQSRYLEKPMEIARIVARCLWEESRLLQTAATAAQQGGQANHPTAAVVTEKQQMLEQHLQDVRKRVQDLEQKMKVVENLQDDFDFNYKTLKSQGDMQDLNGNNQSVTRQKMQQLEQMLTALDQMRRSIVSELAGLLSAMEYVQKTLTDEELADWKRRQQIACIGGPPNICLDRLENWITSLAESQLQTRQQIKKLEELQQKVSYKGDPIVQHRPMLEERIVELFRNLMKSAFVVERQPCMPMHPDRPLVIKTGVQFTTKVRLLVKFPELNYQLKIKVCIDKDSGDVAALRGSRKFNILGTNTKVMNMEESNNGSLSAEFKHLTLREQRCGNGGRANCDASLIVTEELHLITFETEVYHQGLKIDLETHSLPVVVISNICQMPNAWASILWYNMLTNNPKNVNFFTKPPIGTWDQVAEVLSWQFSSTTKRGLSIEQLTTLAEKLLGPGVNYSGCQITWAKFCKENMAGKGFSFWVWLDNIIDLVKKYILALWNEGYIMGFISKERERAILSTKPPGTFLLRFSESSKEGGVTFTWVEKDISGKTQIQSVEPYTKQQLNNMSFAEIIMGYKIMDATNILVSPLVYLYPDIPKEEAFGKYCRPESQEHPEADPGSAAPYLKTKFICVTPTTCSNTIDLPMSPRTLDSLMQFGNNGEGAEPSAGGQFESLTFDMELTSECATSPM

Regarding `Cc1ncsc1-c1ccc([C@H](C)NC(=O)[C@@H]2C[C@@H](O)CN2C(=O)[C@@H](NC(=O)CCCCCCC(=O)N2CC[C@H]3CC[C@@H](C(=O)N[C@@H](CCC(N)=O)C(=O)NC(c4ccccc4)c4ccccc4)N3C(=O)[C@@H](NC(=O)c3cc4cc(C(=O)P(=O)(O)O)ccc4[nH]3)C2)C(C)(C)C)cc1` [Compound 51, (2-(((5S,8S,10aR)-8-(((S)-5-amino-1-(benzhydrylamino)-1,5-dioxopentan-2-yl)carbamoyl)-3-(8-(((S)-1-((2S,4R)-4-hydroxy-2-(((S)-1-(4-(4-methylthiazol-5-yl)phenyl)ethyl)carbamoyl)pyrrolidin-1-yl)-3,3-dimethyl-1-oxobutan-2-yl)amino)-8-oxooctanoyl)-6-oxodecahydropyrrolo[1,2-a][1,5]diazocin-5-yl)carbamoyl)-1H-indole-5-carbonyl)phosphonic acid], the DC50 (usually the concentration at which degradation of the target reaches its halfway point) on STAT3 (24 h) lay within 100 to 1000 nM. Besides, the concentration for half-maximal inhibition (IC50) – broadly, the point on the concentration scale where inhibition reaches its midpoint – with SU-DHL-1 cells (Homo sapiens, 96 h) was 100 to 1000 nM; in the assay with SUP-M2 cells (SUP-M2, 96 h), 100 to 1000 nM.

Regarding `Cc1ncsc1-c1ccc([C@H](C)NC(=O)[C@@H]2C[C@@H](O)CN2C(=O)[C@@H](NC(=O)CCCCCCCC(=O)N2CC[C@H]3CC[C@@H](C(=O)N[C@@H](CCC(N)=O)C(=O)NC(c4ccccc4)c4ccccc4)N3C(=O)[C@@H](NC(=O)c3cc4cc(C(=O)P(=O)(O)O)ccc4[nH]3)C2)C(C)(C)C)cc1` [Compound 52, (2-(((5S,8S,10aR)-8-(((S)-5-amino-1-(benzhydrylamino)-1,5-dioxopentan-2-yl)carbamoyl)-3-(9-(((S)-1-((2S,4R)-4-hydroxy-2-(((S)-1-(4-(4-methylthiazol-5-yl)phenyl)ethyl)carbamoyl)pyrrolidin-1-yl)-3,3-dimethyl-1-oxobutan-2-yl)amino)-9-oxononanoyl)-6-oxodecahydropyrrolo[1,2-a][1,5]diazocin-5-yl)carbamoyl)-1H-indole-5-carbonyl)phosphonic acid], the DC50 at STAT3 (24 h) lay in the range of 100 to 1000 nM. Also, the half-inhibitory concentration (IC50) was in the range of 100 to 1000 nM in the assay on SU-DHL-1 cells (Homo sapiens, 96 h) and 100 to 1000 nM in the assay with SUP-M2 cells (SUP-M2, 96 h).

On to `Cc1ncsc1-c1ccc([C@H](C)NC(=O)[C@@H]2C[C@@H](O)CN2C(=O)[C@@H](NC(=O)CCCCCCCCC(=O)N2CC[C@H]3CC[C@@H](C(=O)N[C@@H](CCC(N)=O)C(=O)NC(c4ccccc4)c4ccccc4)N3C(=O)[C@@H](NC(=O)c3cc4cc(C(=O)P(=O)(O)O)ccc4[nH]3)C2)C(C)(C)C)cc1` [Compound 53, (2-(((5S,8S,10aR)-8-(((S)-5-amino-1-(benzhydrylamino)-1,5-dioxopentan-2-yl)carbamoyl)-3-(10-(((S)-1-((2S,4R)-4-hydroxy-2-(((S)-1-(4-(4-methylthiazol-5-yl)phenyl)ethyl)carbamoyl)pyrrolidin-1-yl)-3,3-dimethyl-1-oxobutan-2-yl)amino)-10-oxodecanoyl)-6-oxodecahydropyrrolo[1,2-a][1,5]diazocin-5-yl)carbamoyl)-1H-indole-5-carbonyl)phosphonic acid], for which, on STAT3 (24 h), the half-maximal degradation concentration (DC50) is 100 to 1000 nM. In addition, the IC50 in the assay on SU-DHL-1 cells (Homo sapiens, 96 h) lay within 100 to 1000 nM; with SUP-M2 cells (SUP-M2, 96 h) it was 100 to 1000 nM.

Regarding `Cc1ncsc1-c1ccc([C@H](C)NC(=O)[C@@H]2C[C@@H](O)CN2C(=O)[C@@H](n2cc(CC(=O)N3CC[C@H]4CC[C@@H](C(=O)N[C@@H](CCC(N)=O)C(=O)NC(c5ccccc5)c5ccccc5)N4C(=O)[C@@H](NC(=O)c4cc5cc(C(=O)P(=O)(O)O)ccc5[nH]4)C3)nn2)C(C)(C)C)cc1` [Compound 54, (2-(((5S,8S,10aR)-8-(((S)-5-amino-1-(benzhydrylamino)-1,5-dioxopentan-2-yl)carbamoyl)-3-(2-(1-((S)-1-((2S,4R)-4-hydroxy-2-(((S)-1-(4-(4-methylthiazol-5-yl)phenyl)ethyl)carbamoyl)pyrrolidin-1-yl)-3,3-dimethyl-1-oxobutan-2-yl)-1H-1,2,3-triazol-4-yl)acetyl)-6-oxodecahydropyrrolo[1,2-a][1,5]diazocin-5-yl)carbamoyl)-1H-indole-5-carbonyl)phosphonic acid], the DC50 on STAT3 (24 h) is more than 1000 nM. Besides, the half-inhibitory concentration (IC50) in the assay with SU-DHL-1 cells (Homo sapiens, 96 h) is more than 1000 nM; with SUP-M2 cells (SUP-M2, 96 h), more than 1000 nM.

Take `Cc1ncsc1-c1ccc([C@H](C)NC(=O)[C@@H]2C[C@@H](O)CN2C(=O)[C@@H](n2cc(CCC(=O)N3CC[C@H]4CC[C@@H](C(=O)N[C@@H](CCC(N)=O)C(=O)NC(c5ccccc5)c5ccccc5)N4C(=O)[C@@H](NC(=O)c4cc5cc(C(=O)P(=O)(O)O)ccc5[nH]4)C3)nn2)C(C)(C)C)cc1` [Compound 55, (2-(((5S,8S,10aR)-8-(((S)-5-amino-1-(benzhydrylamino)-1,5-dioxopentan-2-yl)carbamoyl)-3-(3-(1-((S)-1-((2S,4R)-4-hydroxy-2-(((S)-1-(4-(4-methylthiazol-5-yl)phenyl)ethyl)carbamoyl)pyrrolidin-1-yl)-3,3-dimethyl-1-oxobutan-2-yl)-1H-1,2,3-triazol-4-yl)propanoyl)-6-oxodecahydropyrrolo[1,2-a][1,5]diazocin-5-yl)carbamoyl)-1H-indole-5-carbonyl)phosphonic acid]: the DC50 on STAT3 (24 h) is more than 1000 nM. Besides, the 50% inhibitory concentration (IC50) in the assay on SU-DHL-1 cells (Homo sapiens, 96 h) was more than 1000 nM; with SUP-M2 cells (SUP-M2, 96 h) it was more than 1000 nM.

In the case of `Cc1ncsc1-c1ccc([C@H](C)NC(=O)[C@@H]2C[C@@H](O)CN2C(=O)[C@@H](n2cc(CCCC(=O)N3CC[C@H]4CC[C@@H](C(=O)N[C@@H](CCC(N)=O)C(=O)NC(c5ccccc5)c5ccccc5)N4C(=O)[C@@H](NC(=O)c4cc5cc(C(=O)P(=O)(O)O)ccc5[nH]4)C3)nn2)C(C)(C)C)cc1` [Compound 56, (2-(((5S,8S,10aR)-8-(((S)-5-amino-1-(benzhydrylamino)-1,5-dioxopentan-2-yl)carbamoyl)-3-(4-(1-((S)-1-((2S,4R)-4-hydroxy-2-(((S)-1-(4-(4-methylthiazol-5-yl)phenyl)ethyl)carbamoyl)pyrrolidin-1-yl)-3,3-dimethyl-1-oxobutan-2-yl)-1H-1,2,3-triazol-4-yl)butanoyl)-6-oxodecahydropyrrolo[1,2-a][1,5]diazocin-5-yl)carbamoyl)-1H-indole-5-carbonyl)phosphonic acid], the DC50 at STAT3 (24 h) was more than 1000 nM. Further, the 50% inhibitory concentration (IC50) with SU-DHL-1 cells (Homo sapiens, 96 h) fell in the range of 100 to 1000 nM; with SUP-M2 cells (SUP-M2, 96 h), 100 to 1000 nM.

As for `Cc1ncsc1-c1ccc([C@H](C)NC(=O)[C@@H]2C[C@@H](O)CN2C(=O)[C@@H](n2cc(CCCCC(=O)N3CC[C@H]4CC[C@@H](C(=O)N[C@@H](CCC(N)=O)C(=O)NC(c5ccccc5)c5ccccc5)N4C(=O)[C@@H](NC(=O)c4cc5cc(C(=O)P(=O)(O)O)ccc5[nH]4)C3)nn2)C(C)(C)C)cc1` [Compound 57, (2-(((5S,8S,10aR)-8-(((S)-5-amino-1-(benzhydrylamino)-1,5-dioxopentan-2-yl)carbamoyl)-3-(5-(1-((S)-1-((2S,4R)-4-hydroxy-2-(((S)-1-(4-(4-methylthiazol-5-yl)phenyl)ethyl)carbamoyl)pyrrolidin-1-yl)-3,3-dimethyl-1-oxobutan-2-yl)-1H-1,2,3-triazol-4-yl)pentanoyl)-6-oxodecahydropyrrolo[1,2-a][1,5]diazocin-5-yl)carbamoyl)-1H-indole-5-carbonyl)phosphonic acid], the DC50 on STAT3 (24 h) lay within 100 to 1000 nM. The IC50 in the assay on SU-DHL-1 cells and in the assay with SUP-M2 cells was 100 to 1000 nM in each case.

Consider `Cc1ncsc1-c1ccc([C@H](C)NC(=O)[C@@H]2C[C@@H](O)CN2C(=O)[C@@H](n2cc(CCCCCC(=O)N3CC[C@H]4CC[C@@H](C(=O)N[C@@H](CCC(N)=O)C(=O)NC(c5ccccc5)c5ccccc5)N4C(=O)[C@@H](NC(=O)c4cc5cc(C(=O)P(=O)(O)O)ccc5[nH]4)C3)nn2)C(C)(C)C)cc1` [Compound 58, (2-(((5S,8S,10aR)-8-(((S)-5-amino-1-(benzhydrylamino)-1,5-dioxopentan-2-yl)carbamoyl)-3-(6-(1-((S)-1-((2S,4R)-4-hydroxy-2-(((S)-1-(4-(4-methylthiazol-5-yl)phenyl)ethyl)carbamoyl)pyrrolidin-1-yl)-3,3-dimethyl-1-oxobutan-2-yl)-1H-1,2,3-triazol-4-yl)hexanoyl)-6-oxodecahydropyrrolo[1,2-a][1,5]diazocin-5-yl)carbamoyl)-1H-indole-5-carbonyl)phosphonic acid], for which the 50% degradation concentration (DC50) at STAT3 (24 h) was more than 1000 nM. Besides, the IC50 in the assay with SU-DHL-1 cells (Homo sapiens, 96 h) was more than 1000 nM; in the assay with SUP-M2 cells (SUP-M2, 96 h), 100 to 1000 nM.

As to `Cc1ncsc1-c1ccc([C@H](C)NC(=O)[C@@H]2C[C@@H](O)CN2C(=O)[C@@H](n2cc(CCCCCCC(=O)N3CC[C@H]4CC[C@@H](C(=O)N[C@@H](CCC(N)=O)C(=O)NC(c5ccccc5)c5ccccc5)N4C(=O)[C@@H](NC(=O)c4cc5cc(C(=O)P(=O)(O)O)ccc5[nH]4)C3)nn2)C(C)(C)C)cc1` [Compound 59, (2-(((5S,8S,10aR)-8-(((S)-5-amino-1-(benzhydrylamino)-1,5-dioxopentan-2-yl)carbamoyl)-3-(7-(1-((S)-1-((2S,4R)-4-hydroxy-2-(((S)-1-(4-(4-methylthiazol-5-yl)phenyl)ethyl)carbamoyl)pyrrolidin-1-yl)-3,3-dimethyl-1-oxobutan-2-yl)-1H-1,2,3-triazol-4-yl)heptanoyl)-6-oxodecahydropyrrolo[1,2-a][1,5]diazocin-5-yl)carbamoyl)-1H-indole-5-carbonyl)phosphonic acid], the DC50 on STAT3 was more than 1000 nM. Moreover, the IC50 in the assay on SU-DHL-1 cells (Homo sapiens, 96 h) is more than 1000 nM; with SUP-M2 cells (SUP-M2, 96 h) it was more than 1000 nM.

These data come from patent publication US20260226086A1, “COMPOUNDS AND COMPOSITIONS AS STAT3 DEGRADERS AND USES THEREOF” (REGENTS OF THE UNIVERSITY OF MICHIGAN, priority 2023, published 2026).
